Data on eight compounds can be found in ChEMBL document CHEMBL1671836, “Synthesis and Structure-Activity Relationships of Benzothienothiazepinone Inhibitors of Protein Kinase D” (ACS Med Chem Lett, 2011).

Activity calls are given as the source filed them. The calls are words filed in the database; no cut-off is given here. A value given as a limit tells only on which side of the number the result lay.

In test [1] the target is Protein kinase C delta type (Homo sapiens) (UniProt Q05655). Nature of the test: Inhibition of human recombinant PKCdelta at < 10 uM after 10 mins by radiometric assay.
In test [2] the target is Serine/threonine-protein kinase PLK2 (Homo sapiens) (UniProt Q9NYY3). Nature of the test: Inhibition of PLK2 at < 10 uM by TR-FRET assay. Background: Time-resolved FRET reads energy transfer from a long-lived donor to a nearby acceptor.
The target in test [3] is Protein kinase C alpha type (Homo sapiens) (UniProt P17252). Nature of the test: Inhibition of human recombinant PKCalpha at < 10 uM after 10 mins by radiometric assay.
Test [4] concerns the target Serine/threonine-protein kinase PLK1 (Homo sapiens) (UniProt P53350). Nature of the test: Inhibition of PLK1 at < 10 uM by TR-FRET assay.
For test [5], the target named is Calcium/calmodulin-dependent protein kinase type II subunit alpha (Homo sapiens) (UniProt Q9UQM7). Nature of the test: Inhibition of human recombinant CAMK2alpha at < 10 uM after 10 mins by radiometric assay.
Test [6] addresses Cyclin-dependent kinase 7 (Homo sapiens) (UniProt P50613). Nature of the test: Inhibition of CDK7 at < 10 uM by TR-FRET assay.
Test [7] deals with Protein kinase C beta type (Homo sapiens) (UniProt P05771). Nature of the test: Inhibition of human recombinant PKCbeta1 at < 10 uM after 10 mins by radiometric assay.
For test [8], the target named is RAC-alpha serine/threonine-protein kinase (Homo sapiens) (UniProt P31749). Nature of the test: Inhibition of AKT at < 10 uM by IMAP assay.
Test [9] in a line: Inhibition of human recombinant PKD3 after 10 mins by radiometric assay.

Chain of RAC-alpha serine/threonine-protein kinase (Homo sapiens) (P31749 whole entry): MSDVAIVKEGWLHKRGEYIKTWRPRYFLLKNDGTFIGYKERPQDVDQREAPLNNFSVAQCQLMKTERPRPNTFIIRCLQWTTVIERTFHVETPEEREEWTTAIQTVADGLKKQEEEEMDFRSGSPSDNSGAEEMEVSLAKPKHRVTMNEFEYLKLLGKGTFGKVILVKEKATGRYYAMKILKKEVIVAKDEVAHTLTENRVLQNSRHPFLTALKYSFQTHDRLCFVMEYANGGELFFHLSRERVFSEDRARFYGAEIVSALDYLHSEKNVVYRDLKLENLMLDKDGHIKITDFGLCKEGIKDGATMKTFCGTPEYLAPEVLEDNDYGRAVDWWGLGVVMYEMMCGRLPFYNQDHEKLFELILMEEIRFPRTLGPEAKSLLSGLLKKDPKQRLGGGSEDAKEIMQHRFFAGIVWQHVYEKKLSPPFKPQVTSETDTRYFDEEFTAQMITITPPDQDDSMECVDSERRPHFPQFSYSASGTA
Chain of Calcium/calmodulin-dependent protein kinase type II subunit alpha (Homo sapiens) (Q9UQM7 whole entry): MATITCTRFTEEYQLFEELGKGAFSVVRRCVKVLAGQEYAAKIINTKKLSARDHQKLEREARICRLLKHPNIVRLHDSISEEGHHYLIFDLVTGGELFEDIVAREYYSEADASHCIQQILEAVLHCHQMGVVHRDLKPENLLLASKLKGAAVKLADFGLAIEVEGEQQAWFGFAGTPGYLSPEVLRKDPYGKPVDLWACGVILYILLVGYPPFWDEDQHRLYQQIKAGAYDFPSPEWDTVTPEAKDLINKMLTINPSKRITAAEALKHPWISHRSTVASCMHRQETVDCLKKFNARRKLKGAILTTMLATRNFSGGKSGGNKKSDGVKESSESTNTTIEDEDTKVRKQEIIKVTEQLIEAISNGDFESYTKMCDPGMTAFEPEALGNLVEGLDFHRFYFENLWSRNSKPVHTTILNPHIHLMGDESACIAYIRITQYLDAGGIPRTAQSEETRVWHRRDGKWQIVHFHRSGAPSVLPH
Chain of Serine/threonine-protein kinase PLK1 (Homo sapiens) (P53350 whole entry): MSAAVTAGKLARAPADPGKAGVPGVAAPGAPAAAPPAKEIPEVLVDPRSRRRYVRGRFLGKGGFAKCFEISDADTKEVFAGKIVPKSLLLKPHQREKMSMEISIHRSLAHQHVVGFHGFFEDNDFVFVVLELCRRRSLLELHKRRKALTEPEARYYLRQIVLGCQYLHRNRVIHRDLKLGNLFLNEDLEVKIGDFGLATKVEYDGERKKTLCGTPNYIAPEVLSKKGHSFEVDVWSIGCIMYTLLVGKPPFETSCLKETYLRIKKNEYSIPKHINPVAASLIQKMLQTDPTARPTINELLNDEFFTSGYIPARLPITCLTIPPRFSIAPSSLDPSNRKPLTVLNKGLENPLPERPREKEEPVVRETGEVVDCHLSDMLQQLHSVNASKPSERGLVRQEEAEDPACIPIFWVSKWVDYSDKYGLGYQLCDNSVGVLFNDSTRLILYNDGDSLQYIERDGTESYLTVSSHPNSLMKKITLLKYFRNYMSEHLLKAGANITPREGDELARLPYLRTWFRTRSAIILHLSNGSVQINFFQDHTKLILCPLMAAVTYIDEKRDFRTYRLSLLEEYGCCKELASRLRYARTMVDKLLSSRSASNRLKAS
Chain of Protein kinase C beta type (Homo sapiens) (P05771 2-671 limits assumed): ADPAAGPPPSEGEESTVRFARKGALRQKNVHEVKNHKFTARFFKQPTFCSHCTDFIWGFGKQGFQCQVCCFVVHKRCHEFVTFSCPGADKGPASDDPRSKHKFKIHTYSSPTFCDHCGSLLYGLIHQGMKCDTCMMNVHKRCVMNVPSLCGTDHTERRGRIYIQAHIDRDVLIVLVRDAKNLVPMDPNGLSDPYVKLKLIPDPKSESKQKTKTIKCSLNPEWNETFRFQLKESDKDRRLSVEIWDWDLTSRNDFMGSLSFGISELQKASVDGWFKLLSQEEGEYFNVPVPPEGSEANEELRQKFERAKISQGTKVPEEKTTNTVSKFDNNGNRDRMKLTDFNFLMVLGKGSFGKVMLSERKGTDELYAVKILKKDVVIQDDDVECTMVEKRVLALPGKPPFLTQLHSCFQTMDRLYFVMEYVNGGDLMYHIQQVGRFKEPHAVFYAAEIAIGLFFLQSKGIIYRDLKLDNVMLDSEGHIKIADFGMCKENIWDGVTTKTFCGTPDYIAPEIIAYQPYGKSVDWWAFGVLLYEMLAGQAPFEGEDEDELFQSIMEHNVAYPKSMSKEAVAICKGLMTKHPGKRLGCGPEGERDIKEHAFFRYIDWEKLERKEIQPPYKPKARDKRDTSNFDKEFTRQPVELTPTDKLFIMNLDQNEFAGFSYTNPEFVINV
Chain of Serine/threonine-protein kinase PLK2 (Homo sapiens) (Q9NYY3 whole entry, looked up): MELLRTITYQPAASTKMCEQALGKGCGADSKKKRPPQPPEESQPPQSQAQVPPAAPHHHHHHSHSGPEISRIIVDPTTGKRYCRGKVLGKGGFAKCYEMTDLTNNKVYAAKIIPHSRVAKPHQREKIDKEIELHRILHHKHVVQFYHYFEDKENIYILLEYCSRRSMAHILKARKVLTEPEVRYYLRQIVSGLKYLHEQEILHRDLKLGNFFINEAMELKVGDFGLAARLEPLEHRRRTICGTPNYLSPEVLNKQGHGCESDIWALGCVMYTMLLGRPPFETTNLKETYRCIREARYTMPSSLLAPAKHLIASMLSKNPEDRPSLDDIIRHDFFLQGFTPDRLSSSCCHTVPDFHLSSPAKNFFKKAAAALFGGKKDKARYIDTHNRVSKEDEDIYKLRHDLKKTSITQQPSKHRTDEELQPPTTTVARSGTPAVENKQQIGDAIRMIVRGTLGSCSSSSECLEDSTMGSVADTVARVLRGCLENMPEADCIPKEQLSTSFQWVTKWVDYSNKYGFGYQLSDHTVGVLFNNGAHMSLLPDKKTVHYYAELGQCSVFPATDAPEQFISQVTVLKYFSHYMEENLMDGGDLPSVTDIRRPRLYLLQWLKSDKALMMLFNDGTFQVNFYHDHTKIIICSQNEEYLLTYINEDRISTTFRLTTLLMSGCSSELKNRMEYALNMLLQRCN
Chain of Protein kinase C delta type (Homo sapiens) (Q05655 whole entry, looked up): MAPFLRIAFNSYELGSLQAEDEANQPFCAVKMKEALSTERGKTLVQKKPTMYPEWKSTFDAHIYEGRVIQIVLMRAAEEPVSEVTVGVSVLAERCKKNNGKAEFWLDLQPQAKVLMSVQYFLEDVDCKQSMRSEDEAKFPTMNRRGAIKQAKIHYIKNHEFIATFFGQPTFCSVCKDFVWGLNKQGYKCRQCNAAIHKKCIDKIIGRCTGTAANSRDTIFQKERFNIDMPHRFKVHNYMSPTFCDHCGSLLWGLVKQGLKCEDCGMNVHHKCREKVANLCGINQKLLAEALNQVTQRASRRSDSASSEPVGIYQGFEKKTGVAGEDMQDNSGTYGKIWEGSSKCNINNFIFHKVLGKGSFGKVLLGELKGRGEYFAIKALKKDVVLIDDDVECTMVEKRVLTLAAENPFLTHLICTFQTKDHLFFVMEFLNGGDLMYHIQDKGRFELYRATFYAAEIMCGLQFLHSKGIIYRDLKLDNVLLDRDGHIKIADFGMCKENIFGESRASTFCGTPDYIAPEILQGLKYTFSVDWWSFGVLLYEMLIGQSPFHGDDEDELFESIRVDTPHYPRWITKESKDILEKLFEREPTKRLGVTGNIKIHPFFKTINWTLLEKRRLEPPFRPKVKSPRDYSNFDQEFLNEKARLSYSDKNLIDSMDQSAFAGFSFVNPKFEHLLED
Chain of Cyclin-dependent kinase 7 (Homo sapiens) (P50613 whole entry): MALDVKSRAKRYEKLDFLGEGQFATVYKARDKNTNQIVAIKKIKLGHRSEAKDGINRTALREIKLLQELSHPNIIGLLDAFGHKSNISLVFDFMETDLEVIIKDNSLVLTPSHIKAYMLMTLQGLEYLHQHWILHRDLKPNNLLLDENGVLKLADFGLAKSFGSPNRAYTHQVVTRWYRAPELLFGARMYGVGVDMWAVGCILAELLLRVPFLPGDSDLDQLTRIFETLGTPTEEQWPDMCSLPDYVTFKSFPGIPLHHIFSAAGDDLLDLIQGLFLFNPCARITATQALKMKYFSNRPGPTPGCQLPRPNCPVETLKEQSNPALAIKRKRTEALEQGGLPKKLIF

In the case of `O=C1NCCCSc2c1sc1ccc(O)cc21`, the inhibition result in [1], in [2], in test [3], in test [4], in [5] and in [6] was “inactive” in each case. The inhibition result in test [7] and in [8] was “inactive” each time.

Take `O=C1NCCCc2c1[nH]c1ccc(O)cc21`: the inhibition result in [1], in test [2], in test [3], in test [4], in test [6] and in [7] was “inactive” throughout. Also, in test [8], the inhibition entry was “inactive”. The inhibition in test [5] is below 40%.

Regarding `[N-]=[N+]=Nc1ccc2sc3c(c2c1)SCCNC3=O`, the inhibition result in test [1], in test [2], in test [3], in test [4], in test [6] and in test [7] was “inactive” each time. The inhibition entry in [8] is “inactive”. For the same compound, in test [5], the inhibition was below 40%.

Turning to `COc1ncc2sc3c(c2n1)SCCNC3=O`, the inhibition result in [1], in [2], in test [3], in [4], in [5] and in [6] was “inactive” in each case. In addition, the inhibition entry in test [7] and in test [8] was “inactive” throughout. In [9], the IC50 is 50 nM.

As to `O=C1NCCSc2c1sc1ccc(O)cc21`, the inhibition result in test [1], in [2], in test [3], in [4], in test [5] and in [6] was “inactive” in each case. The inhibition entry in [7] and in test [8] was “inactive” each time.

`COc1ccc2sc3c(c2c1)SCCNC3=O`: the inhibition result in test [1], in [2], in test [3], in test [4], in test [5] and in test [6] was “inactive” each time. Further, the inhibition entry in [7] and in [8] was “inactive” each time.

Turning to `COc1ccc2sc3c(c2c1)SCCCNC3=O`, the inhibition entry in test [1], in test [2], in test [3], in test [4], in test [5] and in test [6] was “inactive” throughout. Further, the inhibition result in [7] and in [8] was “inactive” throughout.

Turning to `O=C1NCCCc2c1oc1ccc(O)cc21`, the inhibition result in test [1], in [2], in test [3], in test [4], in test [5] and in [6] was “inactive” each time. Also, the inhibition entry in test [7] and in test [8] was “inactive” in each case.

Broadly, the inhibition is the percentage by which the read-out fell short of the control. In general, IC50 refers to the midpoint of a concentration-inhibition curve.
